Measurements published in ChEMBL document CHEMBL1201862, “PubChem BioAssay data set” (2004).
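1) Cells in 96-well plates. 2) Compound, 48 h, 5 concentrations. 3) Linear interpolation between surrounding doses. 4) Unreached endpoint = highest concentration. GI50 is the concentration that inhibits growth by half.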 Calls of active or inactive are those of the source. Rule as the data show it: active = GI50 up to about 1.1 µM and inactive = higher.

How the values were obtained:
Test in all cases: growth of human tumour cells (NCI), 48 h
SN12C = test system: SN12C
MCF7 = test system: MCF7
RPMI-8226 = test system: RPMI-8226
HT-29 = test system: HT-29
SF-268 = test system: SF-268
MDA-MB-231 = test system: MDA-MB-231
OVCAR-3 = test system: OVCAR-3
786-0 = test system: 786-0
A498 = test system: A498
LOX IMVI = test system: LOX IMVI
SF-295 = test system: SF-295
NCI-H522 = test system: NCI-H522
HL-60 = test system: HL-60
UACC-62 = test system: UACC-62
CCRF-CEM = test system: CCRF-CEM
HCC 2998 = test system: HCC 2998
HCT-15 = test system: HCT-15
NCI/ADR-RES = test system: NCI/ADR-RES
K562 = test system: K562
EKVX = test system: EKVX

| Structure (SMILES) | GI50 (SN12C) | GI50 (MCF7) | GI50 (RPMI-8226) | GI50 (HT-29) | GI50 (SF-268) | GI50 (MDA-MB-231) | GI50 (OVCAR-3) | GI50 (786-0) | GI50 (A498) | GI50 (LOX IMVI) | GI50 (SF-295) | GI50 (NCI-H522) | GI50 (HL-60) | GI50 (UACC-62) | GI50 (CCRF-CEM) | GI50 (HCC 2998) | GI50 (HCT-15) [µM] | GI50 (NCI/ADR-RES) | GI50 (K562) | GI50 (EKVX) |
| --- | --- | --- | --- | --- | --- | --- | --- | --- | --- | --- | --- | --- | --- | --- | --- | --- | --- | --- | --- | --- |
| CCCCCNC(=O)OC1CCn2c1nc1c2C(=O)C(C)=C(N2CC2)C1=O (stereo not given) | 1.43 µM (inactive) | 0.453 µM (active) | 2.4 µM (inactive) | 0.593 µM (active) | 0.946 µM (active) | 2.01 µM (inactive) | 1.79 µM (inactive) | 0.455 µM (active) | 1.75 µM (inactive) | 0.229 µM (active) | 1.2 µM (inactive) | 0.769 µM (active) | 6.05 µM (inactive) | 1.75 µM (inactive) | 26.5 µM (inactive) | 0.311 µM (active) | 1.92 | 2.56 µM (inactive) | 1.67 µM (inactive) |  |
| O=C1C=CC(=O)c2c1ccc1c3ccccc3n(CCCCCCCCn3c4ccccc4c4ccc5c(c43)C(=O)C=CC5=O)c21 | > 100 µM (inactive) | > 100 µM (inactive) | > 100 µM (inactive) | > 100 µM (inactive) | > 100 µM (inactive) | > 100 µM (inactive) | > 100 µM (inactive) | > 100 µM (inactive) | > 100 µM (inactive) | > 100 µM (inactive) | > 100 µM (inactive) | > 100 µM (inactive) | > 100 µM (inactive) | > 100 µM (inactive) | > 100 µM (inactive) | > 100 µM (inactive) | > 100 | > 100 µM (inactive) | > 100 µM (inactive) | > 100 µM (inactive) |
| O=C1CCC(C(=O)O)C2=C1CCCC2 (stereo not given) | > 100 µM (inactive) | 51.6 µM (inactive) | > 100 µM (inactive) | > 100 µM (inactive) | > 100 µM (inactive) | > 100 µM (inactive) | > 100 µM (inactive) | > 28.6 µM (inactive) | > 100 µM (inactive) | > 100 µM (inactive) | > 36.1 µM (inactive) | > 100 µM (inactive) | > 100 µM (inactive) | > 100 µM (inactive) | > 100 µM (inactive) | > 100 µM (inactive) | > 100 | > 100 µM (inactive) | > 100 µM (inactive) | > 100 µM (inactive) |
| COc1ccc2c(C)cc(N/N=C/c3ccc(C)s3)nc2c1 | 11.9 µM (inactive) | 6.24 µM (inactive) | 3.55 µM (inactive) | 3.21 µM (inactive) | 25.8 µM (inactive) | 6.49 µM (inactive) | 2.94 µM (inactive) | 5.89 µM (inactive) | 19.4 µM (inactive) | 3.46 µM (inactive) | 9.62 µM (inactive) | 3.45 µM (inactive) | 7.05 µM (inactive) | 20.1 µM (inactive) | 5.37 µM (inactive) | 6.11 µM (inactive) | 4.21 | 9.82 µM (inactive) | 3.61 µM (inactive) | 5.4 µM (inactive) |
| CCOC(=O)NC(C(=O)OCC)(N1CCN(c2cc3c(cc2F)c(=O)c(C(=O)O)cn3CC)CC1)C(F)(F)F (stereo not given) | > 100 µM (inactive) | > 100 µM (inactive) | > 100 µM (inactive) | > 100 µM (inactive) | > 100 µM (inactive) | > 100 µM (inactive) | > 100 µM (inactive) | > 100 µM (inactive) | > 100 µM (inactive) | > 100 µM (inactive) | > 100 µM (inactive) | > 100 µM (inactive) | > 100 µM (inactive) | > 100 µM (inactive) | > 100 µM (inactive) | > 100 µM (inactive) | > 100 | > 100 µM (inactive) | > 100 µM (inactive) | 13.2 µM (inactive) |
| C=CCOC(=O)N1[C@H]2C#C/C=C\C#C[C@]3(O)C(=O)C[C@H](C)[C@]24O[C@]43C2=CC(=O)C=CC21OC (stereo not given in full) | 25 µM (inactive) | 16.9 µM (inactive) | 21.2 µM (inactive) | 27.7 µM (inactive) | 50.6 µM (inactive) | 28.3 µM (inactive) |  | 11.6 µM (inactive) | 2.35 µM (inactive) |  | 44 µM (inactive) | 18.6 µM (inactive) | 30.8 µM (inactive) | 31.2 µM (inactive) | 16.8 µM (inactive) | 26.5 µM (inactive) | 31.4 | 43.8 µM (inactive) | 42.2 µM (inactive) | 44 µM (inactive) |
| COc1cc(/C=C/c2sc3ccccc3[n+]2C)ccc1N(C)C | 12.9 µM (inactive) | 4.45 µM (inactive) | 2.21 µM (inactive) | 17.9 µM (inactive) | 13.8 µM (inactive) | 6.14 µM (inactive) | 2.23 µM (inactive) | 12.2 µM (inactive) | 44 µM (inactive) | 15.8 µM (inactive) | 47.4 µM (inactive) | 3.01 µM (inactive) | 6.85 µM (inactive) | 5.26 µM (inactive) | 2.06 µM (inactive) | 21.8 µM (inactive) | 37.2 | > 10 µM (inactive) | 2.1 µM (inactive) | 21.8 µM (inactive) |
| C#CC(O)/C=C/C(O)CCCC(O)CC#CC(O)C#CCCCCC(O)/C=C/CCCC(O)/C=C/CCCCCCCCCCCCCC(O)C(O)C#CC(=O)O (stereo not given) | > 25 µM (inactive) | > 25 µM (inactive) | > 25 µM (inactive) | > 25 µM (inactive) | > 25 µM (inactive) | > 25 µM (inactive) |  | > 25 µM (inactive) | > 25 µM (inactive) | 13.9 µM (inactive) | > 25 µM (inactive) | 12.8 µM (inactive) | > 25 µM (inactive) | > 25 µM (inactive) | > 25 µM (inactive) | > 25 µM (inactive) | > 25 | > 25 µM (inactive) | > 25 µM (inactive) | > 25 µM (inactive) |
| O=C(COc1ccc(OCC(=O)N2C(=O)CC/C2=N\c2ccc(Cl)cc2)cc1)N1C(=O)CS/C1=N\c1ccc(Cl)cc1 | > 100 µM (inactive) | 35.3 µM (inactive) | 46.1 µM (inactive) | 48.4 µM (inactive) | > 100 µM (inactive) | 26.9 µM (inactive) | 61.2 µM (inactive) | > 100 µM (inactive) | > 100 µM (inactive) | 25.2 µM (inactive) | 52.8 µM (inactive) | 63.4 µM (inactive) | 37.2 µM (inactive) | > 100 µM (inactive) |  | > 100 µM (inactive) | > 100 | > 100 µM (inactive) | 66.4 µM (inactive) | 76.9 µM (inactive) |
| Nc1ccccc1N/C=C\C(=O)C(Cl)(Cl)Cl | 19 µM (inactive) | 14.5 µM (inactive) | 14.3 µM (inactive) | 18.9 µM (inactive) | 40.3 µM (inactive) | 47.1 µM (inactive) |  | 15 µM (inactive) | 18.8 µM (inactive) | 15.9 µM (inactive) | 23.4 µM (inactive) | 20.2 µM (inactive) | 22.3 µM (inactive) | 17.5 µM (inactive) | 4.26 µM (inactive) | 16.6 µM (inactive) | 19 | 31 µM (inactive) | 17.1 µM (inactive) | 15 µM (inactive) |
| COc1ccc(-c2csc(Cc3nc4ccccc4c(=O)n3-c3ccc(Cl)cc3)n2)cc1 |  | 32.8 µM (inactive) | 15.9 µM (inactive) | 35.6 µM (inactive) | 27.5 µM (inactive) | 60.7 µM (inactive) | 40.5 µM (inactive) | 28.6 µM (inactive) | 70.8 µM (inactive) | 39.4 µM (inactive) | 50.4 µM (inactive) | 45.7 µM (inactive) | 32.6 µM (inactive) | 18.5 µM (inactive) | 28.9 µM (inactive) | 29.9 µM (inactive) | 29.1 | 56.1 µM (inactive) | 14.6 µM (inactive) | 18.2 µM (inactive) |
| N#Cc1ccc(/N=N/N2CCCC2)cc1 | > 100 µM (inactive) | > 100 µM (inactive) | 40.2 µM (inactive) |  | > 100 µM (inactive) | > 100 µM (inactive) | > 100 µM (inactive) | > 100 µM (inactive) | 96.8 µM (inactive) | > 100 µM (inactive) | > 100 µM (inactive) | > 100 µM (inactive) | 91.2 µM (inactive) | > 100 µM (inactive) | 43.7 µM (inactive) | > 100 µM (inactive) | > 100 | > 100 µM (inactive) | 91 µM (inactive) | 63.8 µM (inactive) |
| Cc1ccc(-c2cc(N)n(-c3nc4c([nH]3)c(=O)n(C)c(=O)n4C)n2)cc1 | 5.32 µM (inactive) | 6.78 µM (inactive) | 6.81 µM (inactive) | 4.53 µM (inactive) | 3.59 µM (inactive) | 8.97 µM (inactive) | 4.55 µM (inactive) | 2.08 µM (inactive) | 4.86 µM (inactive) |  | 2.69 µM (inactive) | 29 µM (inactive) | 5.04 µM (inactive) | 5.37 µM (inactive) | 2.64 µM (inactive) | 7.67 µM (inactive) | 0.47 | 1.55 µM (inactive) | 4.03 µM (inactive) | 3.09 µM (inactive) |
| O=C1C=C(c2c(-c3ccccc3)[nH]c3ccccc23)C(=O)N1c1ccccc1 | 6.65 µM (inactive) | 6.19 µM (inactive) | 5.6 µM (inactive) | 7.18 µM (inactive) | 4.63 µM (inactive) | 11.3 µM (inactive) | 4.41 µM (inactive) | 8.65 µM (inactive) | 10.6 µM (inactive) | 3.77 µM (inactive) | 10.6 µM (inactive) |  | 3.96 µM (inactive) | 10.7 µM (inactive) | 4.02 µM (inactive) | 7.94 µM (inactive) | 5.38 | 8.45 µM (inactive) | 7.41 µM (inactive) | 12.4 µM (inactive) |
